Results: patent publication US8153784B2, “Imaging of enzyme activity” (The General Hospital Corporation, priority 2004, dated 2012)

Biological target: T1, Myeloperoxidase (MPO) (Homo sapiens, UniProt P05164)
T1 construct: purchased Biodesign Int
T1 sequence (P05164 49-745): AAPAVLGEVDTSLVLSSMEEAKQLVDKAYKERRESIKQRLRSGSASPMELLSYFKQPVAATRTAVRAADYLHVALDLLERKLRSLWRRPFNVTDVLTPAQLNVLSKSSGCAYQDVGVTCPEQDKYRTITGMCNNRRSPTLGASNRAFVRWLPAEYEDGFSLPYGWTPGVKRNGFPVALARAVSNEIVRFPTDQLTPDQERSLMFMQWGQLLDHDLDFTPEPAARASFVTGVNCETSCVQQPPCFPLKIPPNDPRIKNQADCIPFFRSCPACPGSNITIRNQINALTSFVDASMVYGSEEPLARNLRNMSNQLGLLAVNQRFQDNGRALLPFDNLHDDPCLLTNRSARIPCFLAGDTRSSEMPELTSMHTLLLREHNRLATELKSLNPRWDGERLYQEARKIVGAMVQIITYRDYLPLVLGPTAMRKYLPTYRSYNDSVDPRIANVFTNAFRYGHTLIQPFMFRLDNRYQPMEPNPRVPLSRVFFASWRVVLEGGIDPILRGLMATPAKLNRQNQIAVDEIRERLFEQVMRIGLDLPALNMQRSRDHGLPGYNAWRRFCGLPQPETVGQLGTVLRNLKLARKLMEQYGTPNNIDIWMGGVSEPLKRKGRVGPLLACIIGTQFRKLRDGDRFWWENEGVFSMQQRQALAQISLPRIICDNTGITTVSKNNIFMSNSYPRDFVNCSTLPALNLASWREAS
Test: MPO-mediated oligomerization of 2Gd^3+: UV, HPLC, MALDI-MS, relaxivity
Type: biochemical
Settings: for degree of polymerization (N) of oligomerized products: MPO/H2O2, MALDI-MS
Procedure: Myeloperoxidase was purchased from Biodesign Int. and was used as received, activity was measured as described by Klebanoff, S. J.; Waltersdorph, A. M.; Rosen, H.; Methods in Enzymology. Vol. 105, p 399-403.
We incubated 0.6 mL of a solution 10^4M of Gd^3+2 at pH=7.2/25° with 4 units of MPO and an excess of H2O2 for 90 minutes. […] The intensity of these new bands increased for a period of about 90 min, and that 90% of the change could be observed within first 30 min. The reaction was quenched by freezing the mixture in liquid N2. […] However, higher N value species were undetectable.
Four solutions with concentrations ranging from 10^−4 to 10^−3 where separately incubated as above and the T1 value were measured at 0.47T using standard inverse recovery sequence. The fitting of these values, following published procedures, yielded a r1=5.9 mM^−1s^−1. […] For longer incubation times, no linear correlation of T1 from Gd concentration could be obtained due to the precipitation of CA at millimolar concentrations. Lower relaxivity increase (32%) was observed when the activity of the enzyme was lowered to 1 unit.
Further characterization of r1 effects modulated by MPO was accomplished by using a 4×2 well plate array of samples prepared as shown in FIG. 14: Row 1 contained 0.3 mL Gd-DTPA-diSer solutions at pH 7.2; Row 2 included the samples the same concentrations and 4 units of MPO and 2 μL of a 3% of aqueous H2O2. Fitting the T1 values of the wells in row 1 afforded r1 of 4.7 mM^−1s^−1. […] In this case, we observed precipitation of insoluble products during the MRI scan. The fitting of the values measured in other 3 wells, the relaxivity was 5.5 mM^−1s^−1.
Indium-111 labeled bis-5-HT-DTPA was prepared by using transchelation from ^111In-oxiquinoline complex (oxine, Cardinal Health, Cleveland Ohio). To prepare ^111In-bis-5-HT-DTPA, 50 μg of bis-5-HT-DTPA (1 mg/ml) were mixed with 1 mCi ^111In-oxiquinoline solution in 0.7-1.0 ml saline and incubated for 1 hour under argon. Transchelation and purity was controlled by HPLC (Discovery C-18 column, 25×3 mm, Supelco) using 0-55% gradient of acetonitrile in water. Human myeloperoxidase was obtained from BioDesign, Inc., and its activity determined by using the method described by Klebanoff. To determine if the Gd compounds were substrates for human MPO, MPO-mediated oligomerization was monitored by size exclusion HPLC and by measuring ΔT1 on a Bruker Minispec 120 NMR spectrometer using a standard inversion recovery sequence. The degree of oligomerization was determined by mass spectroscopy (MALDI-MS).

O=C([O-])CN(CCN(CC(=O)[O-])CC(=O)NCCc1c[nH]c2ccc(O)cc12)CCN(CC(=O)[O-])CC(=O)NCCc1c[nH]c2ccc(O)cc12.[Gd+3] [2Gd^3+]
increase of r1 compared with the initial substrate (0.47T, 4 units of MPO): 37% | r1 (0.47T, 4 units of MPO, H2O2): 5.9 mM⁻¹ s⁻¹ | relaxivity increase (0.47T, enzyme activity lowered to 1 unit): 32% | fraction of the UV absorbance change observed within first 30 min (10^4M, pH=7.2/25°, 4 units of MPO, excess H2O2): 90% | conversion (HPLC after addition of MPO): 99.5% | degree of polymerization (N) of oligomerized products (listed as Gd^3+2): 1-4 | degree of polymerization (N) of oligomerized products (listed as bis-5-HT-DTPA(Gd)): up to 5 | relaxivity (well plate at 1.5T, 4 units of MPO and H2O2, fitting of 3 wells): 5.5 mM⁻¹ s⁻¹ | minimum increase of relaxivity (well plate at 1.5T, range 10^−4 to 5 10^−4): ≥ 17%
